Values quoted from earlier work as cited in US20160030582A1 (MAYNE PHARMA INTERNATIONAL PTY. LTD., priority 2012, published 2016).
Like-named read-outs stand apart in the source and are kept apart here.

Experiments:
[1] = test system: typical infecting organisms for specific superficial and systemic mycoses; parameters: MIC90: unit not given here; conditions: for MIC RANGE: in µg/mL
[2] = Aspergillosis, A. flavus complex
[3] = Aspergillosis, A. fumigatus complex
[4] = Aspergillosis, A. nidulans complex
[5] = Aspergillosis, A. niger complex
[6] = Aspergillosis, A. terreus complex
[7] = tinea capitis, Microsporum sp. (audounti, canis, gypseum, ferrugineum et al.)
[8] = tinea capitis, Trichophyton sp. (tonsurans violaceum, soudanese, schoenleinii, mentagrophytes, verrucossum, et al.)
[9] = tinea corporis, Epidermophyton floccosum
[10] = tinea corporis, Microsporum sp. (canis, gypseum, et al.)
[11] = tinea corporis, Trichophyton sp. (rubrum, tonsurans interdigitale, mentagrophytes, concentricim, violaceum et al.)
[12] = tinea cruris, Epidermophyton floccosum
[13] = tinea cruris, Microsporum sp. (canis, et al.)
[14] = tinea cruris, Trichophyton sp. (rubrum, tonsurans interdigitale, mentagrophytes, et al.)
[15] = tinea manuum, Epidermophyton floccosum
[16] = tinea manuum, Trichophyton sp. (rubrum, interdigitale, mentagrophytes.)
[17] = tinea pedis, Epidermophyton floccosum
[18] = tinea pedis, Microsporum sp. (canis, gypseum, et al.)
[19] = tinea pedis, Trichophyton sp. (rubrum, tonsurans interdigitale, mentagrophytes, et al.)
[20] = tinea unguium, Epidermophyton floccosum
[21] = tinea unguium, Microsporum sp. (canis, et al.)
[22] = tinea unguium, Trichophyton sp. (rubrum, tonsurans interdigitale, mentagrophytes, et al.)

CCC(C)n1ncn(-c2ccc(N3CCN(c4ccc(OCC5COC(Cn6cncn6)(c6ccc(Cl)cc6Cl)O5)cc4)CC3)cc2)c1=O (centres unmarked) [itraconazole]
MIC90 [1]: MIC90 = 0.06
MIC90 [1, 2]: MIC90 = 0.5
MIC RANGE [1, 2]: 0.03-8
MIC90 [1, 3]: MIC90 = 0.5
MIC RANGE [1, 3]: 0.03-16
MIC90 [1, 4]: MIC90 = 0.25
MIC RANGE [1, 4]: 0.03-8
MIC90 [1, 5]: MIC90 = 0.5
MIC RANGE [1, 5]: 0.03-8
MIC90 [1, 6]: MIC90 = 0.25
MIC RANGE [1, 6]: 0.03-1
MIC90 ([1]; Candidiasis, C. albicans): MIC90 = 0.125
MIC RANGE ([1]; Candidiasis, C. albicans): 0.008-8
MIC RANGE ([1]; Candidiasis, C. glabrata): 0.008-16
MIC RANGE ([1]; Candidiasis, C. kruset): 0.008-8
MIC RANGE ([1]; Candidiasis, C. tropicalis): 0.03-8
MIC RANGE ([1]; Pityriasis versicolor, Malassezia sp. (florfur, globosa, obtuse, sympodialis etc).): 0.3-16
MIC RANGE [1]: 0.03-8
MIC90 [1, 7]: MIC90 = 0.25-0.5
MIC RANGE [1, 7]: 0.01-4
MIC90 [1, 8]: MIC90 = 0.25-0.5
MIC RANGE [1, 8]: 0.01-8
MIC90 [1, 9]: MIC90 = 0.125
MIC RANGE [1, 9]: 0.01-8
MIC90 [1, 10]: MIC90 = 0.25-0.5
MIC RANGE [1, 10]: 0.01-4
MIC90 [1, 11]: MIC90 = 0.25-0.5
MIC RANGE [1, 11]: 0.01-8
MIC90 [1, 12]: MIC90 = 0.125
MIC RANGE [1, 12]: 0.01-8
MIC90 [1, 13]: MIC90 = 0.25-0.5
MIC RANGE [1, 13]: 0.01-4
MIC90 [1, 14]: MIC90 = 0.25-0.5
MIC RANGE [1, 14]: 0.01-8
MIC90 [1, 15]: MIC90 = 0.125
MIC RANGE [1, 15]: 0.01-8
MIC90 [1, 16]: MIC90 = 0.25-0.5
MIC RANGE [1, 16]: 0.01-8
MIC90 [1, 17]: MIC90 = 0.125
MIC RANGE [1, 17]: 0.01-8
MIC90 [1, 18]: MIC90 = 0.25-0.5
MIC RANGE [1, 18]: 0.01-4
MIC90 [1, 19]: MIC90 = 0.25-0.5
MIC RANGE [1, 19]: 0.01-8
MIC90 [1, 20]: MIC90 = 0.125
MIC RANGE [1, 20]: 0.01-8
MIC90 [1, 21]: MIC90 = 0.25-0.5
MIC RANGE [1, 21]: 0.01-4
MIC90 [1, 22]: MIC90 = 0.25-0.5
MIC RANGE [1, 22]: 0.01-8
expected apparent plasma terminal elimination half-life (t½) (basis for sampling schedule of Example 12): 22 h
reduction of Cmax and AUC in the fasting state (compared to administration after a light meal): 50-70%
excreted unchanged in the feces (oral dose): 3-18%
